# Assay results reported in patent publication US20080300298A1, “Honokiol Derivates For the Treatment of Proliferative Disorders” (priority 2005, published 2008).
# Assays:
# HUVEC = experiment: In Vitro Angiogenesis Assay (tube formation); type: cell-based, human; conditions: 8 ug/ml, 6 h
# JNK in CH12.LX cells = experiment: JNK phosphorylation (Western blotting); type: cell-based, mouse; conditions: CH12.LX cells transfected with hCD40-LMP1
# Text: The cells were pelleted by centrifugation, lysed and analyzed by SDS PAGE and Western blotting. Peroxidase-labeled antibodies were visualized on Western blots using a chemilluminescent detection reagent to assay for JNK phosphorylation.
# [1] = system: NF-kB-regulated gene products in H1299 cells; experiment: Western blot of TNF-induced NF-kB-regulated gene products; type: cell-based, human
# Procedure: (A) Honokiol inhibits COX-2, MMP-9, ICAM-1, and VEGF expression induced by TNF. H1299 cells (2×10^6/ml) were left untreated or incubated with […] honokiol for 12 h and then treated with 0.1 nM TNF for different times. Whole-cell extracts were prepared, and […] of the whole-cell lysate was analyzed by Western blotting using antibodies against VEGF, MMP-9, and COX-2. (B) Honokiol inhibits cyclin D1 and c-myc expression induced by TNF. H1299 cells (2×10^6/ml) were left untreated or incubated with […] honokiol for 12 h and then treated with 0.1 nM TNF for different times. Whole-cell extracts were prepared, and […] of the whole-cell lysate was analyzed by Western blotting using antibodies against cyclin D1 and c-myc. […] (C) Honokiol inhibits the expression of anti-apoptotic gene products cIAP1, cIAP2 Bcl-x1, Bcl-2, cFLIP, TRAF2, and survivin. H1299 cells (2×10^6/ml) were left untreated or incubated with […] honokiol for 12 h and then treated with 0.1 nM TNF for different times. Whole-cell extracts were prepared, and […] of the whole-cell lysate was analyzed by Western blotting using antibodies against IAP1, IAP2, bcl-x1, bcl-2, cFLIP, and survivin as indicated.
# Western blot analysis. […] Cytoplasmic protein […] was resolved on 10% SDS-PAGE gel, transferred to a nitrocellulose membrane, blocked with 5% non-fat milk, and probed with specific antibodies against IkBa, posphorylated IkBa, p65, and phosphorylated p65. To determine the expression of cyclin D1, COX-2, MMP-9, cIAP-1, TRAF1, Bcl-2, Bfl-1, cFLIP, and survivin in whole-cell extracts of treated cells (2×10^6 cells in 2 ml of medium), […] of protein was resolved on SDS-PAGE and probed by Western blot with specific antibodies as per the manufacturer's recommended protocol. The blots were washed, exposed to HRP-conjugated secondary antibodies for 1 h, and finally detected by ECL reagent (Amersham Pharmacia Biotechnology, Piscataway, N.J.). The bands were quantified using a Personal Densitometer Scan v1.30 using Imagequant software version 3.3 (Molecular Dynamics). […]
# BMSCs = type: cell-based, human
# Procedure: MNCs in BM specimens were also used to establish long-term bone marrow stromal cell (BMSC) cultures, as described in, for example, Uchiyama et al Blood. 1993; 82:3712-3720 and Hideshmia et al Oncogene. 2001; 20:4519-4527.
# Reagents: Honokiol (HNK; Calbiochem, San Diego, Calif.) was dissolved in ethanol at 20 mg/ml stock solution. Recombinant human interleukin-6 (IL-6), vascular endothelial growth factor (VEGF) and insulin-like growth factor-1 (IGF-1) (R&D Systems, Minneapolis, Minn.) were reconstituted with sterile PBS containing 0.1% FBS (IL-6 and VEGF) and 10 mM of acetic acid containing 0.1% FBS (IGF-1), respectively. Pan-caspase inhibitor z-VAD-fmk (Bachem, Bubendorf, Switzerland) was dissolved in methanol. These reagents were stored at −20° C. and diluted by media just before the use. Doxorubicin (Sigma, St Louis, Mo.) was dissolved in sterile water at the concentration of 3.45 mM. As2O3 (5 mM in PBS) was provided by Cell Therapeutics Inc. (Seattle, Wash.). […] Absorbance readings at a wavelength of 450 nm were taken on a spectrophotometer (Molecular Devices Corp., Sunnyvale, Calif.).
# The effect of HNK on MM cells in the presence of exogenous IL-6 and IGF-1, as well as BMSCs was evaluated. […] DNA synthesis was determined by measuring [^3H]-thymidine incorporation during the last 8 h of 48 h cultures. […]
structure (smiles),measurement,setting,value
"C=CCc1ccc(O)c(-c2ccc(O)c(CC=C)c2)c1 [HNK, Honokiol]",tube formation by endothelial cells,HUVEC,significantly inhibited the tube formation
same,JNK phosphorylation,JNK in CH12.LX cells,inhibited by honokiol in a dose dependent manner
same,"TNF-induced expression of VEGF, COX-2, ICAM-1 and MMP-9",[1]; H1299,abolished the expression
same,TNF-induced expression of cyclin D1 and c-myc,[1]; H1299,"abolished, in a time-dependent fashion, the TNF-induced expression of cyclin D1 and c-myc"
same,TNF-induced expression of anti-apoptotic gene products,"[1]; cIAP1, cIAP-2, BCl-2, Bcl-xL, cFLIP, TRAF1, and survivin",inhibited the TNF-induced expression of all of these proteins
same,viability of BMSCs,BMSCs,did not affect the viability of BMSCs
